Results on two compounds are retold here after patent US11680049B2, “Certain (2S)-N-[(1S)-1-cyano-2-phenylethyl]-1,4-oxazepane-2-carboxamides as dipeptidyl peptidase 1 inhibitors” (AstraZeneca AB, priority 2014, dated 2023).

Series [1] can be described thus: Rat quantitative whole-body autoradiography (QWBA) studies, aortic retention. The format is in vivo.
For series [2] the following is noted: described in literature (Schmidt et al. 1984); concomitant ultra-structural changes by electron microscopy; cited from earlier work.

For `N#Cc1ccc(-c2ccc(C[C@@H](C#N)NC(=O)C3(N)CCOCC3)cc2)cc1` [WO2010/128324 (Ex. 3), 4-amino-N-[(1S)-1-cyano-2-(4′-cyanobiphenyl-4-yl)ethyl]tetrahydro-2H-pyran-4-carboxamide], in series [1], the “aortic retention in rat QWBA studies” value was “high level of aortic retention”. Turning to `CC(c1ccc(Cl)c(Cl)c1)N1N=C(N)CC1=O` (centres unmarked) [muzolimine], the “retention in the aorta in QWBA studies” value in series [2] is on record as “retained selectively in the aorta”.
